One data set has as its system endothelial cells. Conditions: cited from earlier work.
The next data set deals with animal models of AD. Conditions: cited from earlier work.
A further data set relates to Tg2576 (Tg/+) mice. As to the kind of experiment: Microvessel density (MVD) by CD105 staining in immunized mice. Format: in vivo, mouse. Conditions: for microvessel density (MVD), ratio of TFA to total area of imaged field: CD105 staining, mean±SEM. As for the experimental part: (§1) Injections were performed i.p.
Microvessel density (MVD) was quantified by confocal microscopy using the methods developed by Guo et al. (Angiogenesis 4, 187-191 with minor modifications). Using CD105 as a marker of angiogenic cerebrovasculature (Masliah et al. (2005) Neurology 64, 129-131), images of optimal fluorescent intensity were acquired and analyzed using the Zeiss LSM510 Meta software. Areas within the brain section containing high density (“hotspots”) (Bombois et al. (2007) Arch Neurol 64, 583-587) CD105 staining were imaged using the 20×/0.45 N-Achroplan objective using the confocal imaging parameters mentioned previously. The total fluorescence area (TFA) in μm^2 was integrated above background, by the software, for each hotspot. The average TFA from four different hotspots per mouse was quantified. The TFA was used as a numerical representation of the total microvessels stained by the CD105 antibody. The MVD of the imaged field was expressed as a ratio of the TFA to the total area of the image.
Microvessel density quantification: Microvessel density was quantified by confocal microscopy using the methods described previously Biron et al., PLoS ONE 6, e23789 (2011)). Using CD105 as a marker of angiogenic cerebrovasculature (Holley et al. Neurosci Lett 470, 65-70 (2010)), images of optimal fluorescent intensity were acquired and analyzed using the Zeiss LSM510 Meta software. Areas within the brain section containing high density (“hotspots”) CD105 staining were imaged using the 20×/0.45 N-Achroplan objective using the confocal imaging parameters mentioned previously. The total fluorescence area (TFA) in μm^2 was integrated above background, by the software, for each hotspot. The average TFA from four different hotspots per mouse was quantified. The TFA was used as a numerical representation of the total microvessels stained by the CD105 antibody. The microvascular density of the imaged field was expressed as a ratio of the TFA to the total area of the image.

In data set [1] the test system is Tg2576 (Tg/+) and wild-type (+/+) mice. Conditions: for tight junction abnormalities compared to PBS immunized controls (qualitative) / TJ expression in microvessels/capillaries (qualitative) / incidence of TJ disruption (percentage of blood vessels with abnormal TJ morphology) / TJ expression in larger vessels (qualitative): Tg2576 mice; for tight junction abnormalities compared to PBS immunized controls (qualitative): cortex and hippocampus; for TJ expression in microvessels/capillaries (qualitative): preventative and therapeutic immunization; for incidence of TJ disruption (percentage of blood vessels with abnormal TJ morphology): mean±SEM; for TJ expression in larger vessels (qualitative): preventative or therapeutic immunization.
Protocol: (§2) Briefly, two separate vaccination strategies were carried out, therapeutic and preventative. Prior to immunization, mice were bled from the saphenous vein and serum collected. In the preventative approach, mice were vaccinated beginning at 6 weeks of age and sacrificed at 12 months. Mice used in the therapeutic strategy were vaccinated beginning at 11 months of age and sacrificed at 15 months. Abeta peptide was freshly prepared from lyophilized powder for each set of injections. For immunizations, 2 mg of abeta (human abeta1-40, Bachem) was added to 0.9 mL of deionized water and thoroughly mixed. Then 100 μL of 10×PBS was added to obtain a final 1×PBS concentration. The solution was vortexed and placed at 37° C. overnight until use the next day. Abeta1-40 (100 μg antigen per injection) or PBS (control) was mixed 1:1 (v/v) with complete Freund's adjuvant (CFA) for the first immunization. This was followed by a boost with abeta1-40 (100 μg) or PBS mixed 1:1 (v/v) with incomplete Freund's adjuvant (ICFA) at two weeks and monthly thereafter. From the fifth immunization onward, straight PBS or abeta were injected. Injections were performed i.p.
Dewaxed paraffin sections underwent antigen retrieval using a conventional stovetop pressure cooker using 20 mM Tris with 0.7 mM EDTA buffer (pH 9.0) at full steam for 2 minutes. Cooled slides were then incubated in blocking buffer (25% normal goat serum; 3% BSA; 0.3% Triton X-100, Sigma) for 1 hour at room temperature. Primary antibodies used included rabbit anti-ZO-1 (1:200, Invitrogen), mouse anti-ZO-1 (1:200, Invitrogen), rabbit anti-occludin (1:200, Invitrogen), rabbit anti-activated caspase-3 (1:1000, Imgenex), and mouse anti-human CD105 (1:20, DAKO). Primary antibody staining was performed overnight at 4C in staining buffer (10% normal goat serum; 3% BSA; 0.3% Triton X-100). Normal donkey serum was used when staining with goat primary antibodies. Secondary antibodies used were complimentary to the species of the primary conjugated with either Alexa Fluor dyes 488 or 568 (1:500, Invitrogen). Secondary antibody staining was performed at room temperature for 1 hour in staining buffer. TOTO-3 (1:10000, Invitrogen) was used for nuclear counterstaining. Sections were washed in PBS with 0.1% Tween-20 (Sigma) three times for 5 minutes each between staining steps. Stained sections were coverslipped using Fluoromount-G (Southern Biotech) and allowed to air dry in the dark overnight.
Brain sections were analyzed from paraffin blocks from every fifth section. Images taken on a Zeiss LSM510 Meta (Zeiss, Germany), were acquired with 16 slices, averaged four times, through the Z-plane using a 40×/1.3 oil-immersion Plan-Neofluor objective. The composite projected image was imported into Adobe Photoshop, at 600 dpi, and optimized for contrast and brightness. Quantitative analysis of tight junction morphology was analyzed according the methodology developed by Plumb et al. (Brain Pathol 12, 154-169). Confocal data sets represented approximately 100 cerebral blood vessels from both young and aged Tg2576 and littermate controls in the frontal cortex and hippocampus. Individual vessels were scored as either normal (1) or abnormal (0) for ZO-1 expression. Normal ZO-1 expression was judged as strong, continuous, intense and linear staining. In contrast, abnormal ZO-1 expression was judged as weak, punctate and/or discontinuous staining. […] To minimize the recording of incomplete or undulating vessels as abnormal, due to observed “gaps” in ZO-1 staining, evidence of vessel continuity was sought in the images. For example, the presence of stained nuclei (with TOTO-3) or punctate or diffuse ZO-1 remnants was used to localize the position of abnormal gaps along the vessel tract.

For data set [2], the system named is Tg2576 and wild-type mice.
Protocol: as §2
Tg2576 and wild-type mice immunized, preventatively or therapeutically, with either abeta or PBS were assessed for cerebrovascular leakage and TJ abnormalities by confocal microscopy. Mouse albumin was used as a marker for vascular leakage and was visualized as diffuse gradient staining emanating away from vessels FIG. 8b (white arrowhead).
In data set [3] the test system is Tg2576 mice. Conditions: cited from earlier work.
The conditions of data set [4]: mouse, in vivo.
Protocol: Mice were terminally anesthetized with ketamine/xylazine (100 mg/kg; 10 mg/kg) and perfused with PBS for 5 minutes. Brains were then rapidly excised, olfactory bulbs and cerebellum removed, weighed and post-fixed in 4% paraformaldehyde for four days at 4° C. The brains were then imbedded in paraffin and sectioned serially at 5 μm. […] Average brain weights were compared amongst the immunized mice by comparing brain to body mass ratios.
In data set [5] the test system is Tg2576 mice. As to the kind of experiment: Apoptosis by activated caspase-3 staining in immunized mice. Format: in vivo, mouse. As for the experimental part: as §1
An anti-activated caspase-3 antibody was used as a marker of apoptosis FIG. 9. […] PBS immunized Tg2576 mice, both preventative and therapeutic, had significant activated caspase-3 staining within the FIG. 9a cortex and hippocampus (not shown) that tended to surround probable abeta plaques. […] The overall density of activated caspase-3 staining in these mice was noted to be lower than the Tg2576 treated with abeta. […] Cortex activated caspase-3 staining appear similar in the abeta immunized Tg2576 to the wild-type variants.

Data set [6] has as its system Tg2576 mice.
Protocol: Briefly, two separate vaccination strategies were carried out, therapeutic and preventative. […] In the preventative approach, mice were vaccinated beginning at 6 weeks of age and sacrificed at 12 months. Mice used in the therapeutic strategy were vaccinated beginning at 11 months of age and sacrificed at 15 months. Abeta peptide was freshly prepared from lyophilized powder for each set of injections. For immunizations, 2 mg of abeta (human abeta1-40, Bachem) was added to 0.9 mL of deionized water and thoroughly mixed. Then 100 μL of 10×PBS was added to obtain a final 1×PBS concentration. The solution was vortexed and placed at 37° C. overnight until use the next day. Abeta1-40 (100 μg antigen per injection) or PBS (control) was mixed 1:1 (v/v) with complete Freund's adjuvant (CFA) for the first immunization. This was followed by a boost with abeta1-40 (100 μg) or PBS mixed 1:1 (v/v) with incomplete Freund's adjuvant (ICFA) at two weeks and monthly thereafter. From the fifth immunization onward, straight PBS or abeta were injected. Injections were performed i.p.
Aβ was imaged with a Zeiss LSM 710 Laser Scanning.
The mark [7] stands for this setting: Tg2576 mice, preventative and therapeutic.

The source of these data is patent publication US11925678B2, “Methods for diagnosing and treating Alzheimer's disease” (Cava Healthcare Inc., priority 2011, dated 2024).

Where two headings read alike, the source gives them in different places.

Take `C=C(c1ccc(C(=O)O)cc1)c1cc2c(cc1C)C(C)(C)CCC2(C)C` [bexarotene]: the “angiogenesis (proliferation, adhesion, invasion and migration of endothelial cells)” value in the data set on endothelial cells was “inhibits angiogenesis”. In the data set with animal models of AD, the memory performance result was “increase memory performance” and the plaque burden result was “reduce plaque burden”.

In the case of human abeta1-40, the “microvessel density (MVD), ratio of TFA to total area of imaged field” value in the data set on Tg2576 (Tg/+) mice (Tg2576 mice immunized preventatively) was 0.1972±0.0075; in the data set on Tg2576 (Tg/+) mice (Tg2576 mice immunized therapeutically (after disease onset)) it was 0.2180±0.0130. Besides, the “microvascular density compared to PBS controls (qualitative)” value with Tg2576 (Tg/+) mice (setting [7]) is “reduced microvascular density”. Further, the “percentage of abnormal vascular TJ expression” value in data set [1] (Example 3, Tg/+ mice immunized preventatively from 6 weeks of age, neocortex and hippocampus) is reported as about 10%. Further, the “percentage of abnormal vascular TJ expression (TJ pathology)” value in [1] (Example 3, Tg/+ mice immunized therapeutically at 11 months of age, neocortex and hippocampus) is about 10%. In addition, the “tight junction abnormalities compared to PBS immunized controls (qualitative)” value was “reduced tight junction abnormalities” in [1], “markedly reduced TJ pathology” in data set [1] (listed as Abeta) and “reduced tight junction abnormalities” in data set [1] (listed as Aβ). Further, the entries for the “TJ expression in microvessels/capillaries (qualitative)” value in [1] and in data set [1] (listed as Aβ) were “normal TJs” and “normal ZO-1 expression in the capillaries”, respectively. The “incidence of TJ disruption (percentage of blood vessels with abnormal TJ morphology)” value in data set [1] (preventative immunization (6 weeks to 12 months), cortex) is listed as 11.33±2.40%; in data set [1] (preventative immunization, hippocampus), 11.91±1.73%; in data set [1] (therapeutic immunization (11 to 15 months), cortex), 10.40±0.81%; in [1] (therapeutic immunization, hippocampus), 11.00±2.26%. Further, the figures for the “TJ expression in larger vessels (qualitative)” value in data set [1] and in data set [1] (listed as Aβ) were “larger proportion of abnormal TJ expression” and “some abnormal TJ pathology mainly in larger vessels”, respectively. The “overall vascular leakage (qualitative)” value in data set [2] (Tg2576 mice, preventatively immunized (FIG. 8)) is reported as “overall reduced vascular leakage”. For the same compound, the “vascular leakage in larger vessels (mouse albumin)” value in data set [2] (mouse, in vivo) is listed as “periodic vascular leakage”. In data set [2] (mouse, in vivo), the “vascular leakage in wild-type mice” value was “no vascular leakage”. Further, the “plaque burdens and microgliosis” value in the data set with Tg2576 mice [3] (Tg2576 mice) is given as “significantly reduced”. The “immune response: anti-abeta antibody titres” value with Tg2576 mice [3] (mice immunized preventatively or therapeutically) was “increase in anti-abeta antibody titres”. Moreover, the “global integrity of the BBB” value in the data set on Tg2576 mice [3] (post-abeta immunized Tg2576 mice) was “improves significantly”. Also, in [4], the “average brain to body weight ratio (difference between groups)” value is listed as “did not reach significance”. Moreover, in the data set on Tg2576 mice [5] (Tg2576 mice), the “distribution of activated caspase-3 staining” value is reported as “hippocampal restricted caspase-3 staining”. Moreover, the “activated caspase-3 staining (qualitative, overall)” value with Tg2576 mice [5] (Tg2576 mice (FIG. 9)) is reported as “reduced activated caspase-3 staining”. The “activated caspase-3 staining in cortex” value in the data set on Tg2576 mice [5] (setting [7]) is on record as “limited caspase-3 staining”. In addition, the “abeta deposition in cerebral capillaries” value with Tg2576 mice [6] (Tg2576 mice) is listed as “No abeta deposition”. For the same compound, in the data set on Tg2576 mice [6] (Tg/+ mice preventatively immunized), the “parenchymal Aβ plaques” value was “complete elimination”. Further, in the data set with Tg2576 mice [6] (Tg/+ mice therapeutically treated), the Aβ plaque pathology result is on record as “dramatic decrease”. Also, in the data set with Tg2576 mice [6] (Tg/+ mice, therapeutic or preventative (FIG. 14)), the “Aβ deposits compared to Tg/+, PBS (qualitative)” value is given as “general reduction of Aβ deposits”. Further, in the data set on Tg2576 mice [6] (mouse, in vivo), the “vascular abeta deposition in larger vessels” value is reported as “Mild vascular abeta deposition”.
